Test results published in PMC10166914, “GTN057, a komaroviquinone derivative, induced myeloma cells' death in vivo and inhibited c‐MET tyrosine kinase” (Cancer Medicine, 2023).

Tests used:
MUM24 cells = assay: Combination treatment with bortezomib or lenalidomide, MTT assay; assay type: cell-based, human; settings: GTN057 with bortezomib or lenalidomide
Description: FIGURE 1 GTN057 induced the cell death of MM cells in vitro. (A) The chemical structure of GTN057 and the putative degradation product, GTN054. (B) GTN057 induced the cell death of the MM cell lines. The cells were incubated with GTN057 for 48 h, and the number of viable cells was counted by trypan blue exclusion test. Bars: mean ± SD (n = 3). *p < 0.05 versus control. (C) Growth‐inhibitory effects of GTN057 on CD138‐positive cells obtained from MM patients' bone marrow. Cells were treated with GTN057. The viability was evaluated by an MTT assay. Bars: mean ± SD (n = 3). *p < 0.05 versus control. (D) Combination treatment of GTN057 with bortezomib (Btz) or lenalidomide (Len), two major standard myeloma drugs, in MUM24 cells. The viability was evaluated by an MTT assay. Bars: mean ± SD (n = 3). *p < 0.05 versus GTN057 alone. […]
For the 3‐[…] (MTT) assay (Roche Diagnostics), 6 × 10^4 cells/mL of CD138‐positive bone marrow cells were cultured in 96‐well plates in triplicate with various concentrations of GTN057 for 48 h. The cell viability was examined by MTT dye absorbance in accord with the manufacturer's manual. […]

KMS11 xenografted tumor = assay: Histopathologic and immunohistochemical examination of xenografts; assay type: in vivo, ICR/SCID mice; settings: GTN057-treated KMS11 xenografts, immunohistochemistry
Description: Xenografts were excised and fixed with 10% formalin and embedded in paraffin. Five‐μm sliced sections were used for hematoxylin and eosin (H&E) staining. For the immunohistochemical evaluation, we used anti‐human cleaved poly(ADP‐ribose), polymerase (PARP), polyclonal antibody (pAb) (Cell Signaling Technology Japan, Tokyo), anti‐human Ki‐67 monoclonal antibody (mAb) (clone MIB‐1) (Dako Japan, Tokyo), anti‐human cleaved caspase‐3 (Asp175), pAb (Cell Signaling Technology Japan), and anti‐human Factor VIII mAb (Atlas Antibodies).

c-MET = molecular target: T1, c-MET (Homo sapiens, UniProt P08581); assay: Western blot, dose-dependent inhibition of c-MET phosphorylation in KMS34 cells; assay type: cell-based; settings: Western blot densitometry, read-out: 50% inhibition of the phosphorylation of c-MET
T1 construct: endogenous in cells; host or cells: KMS34 multiple myeloma cells
Description: (§1) MM cells (4 × 10^5 cells/mL) were incubated with 0–20 μM GTN057 for 12 h. The cells were then co‐cultured with 0–50 ng/mL of hepatocyte growth factor (HGF) (PeproTech, London) or 0–20 ng/mL of fibroblast growth factor (FGF)‐2 (PeproTech) with 1 unit/mL of heparin in RPMI containing 4% dialyzed FCS (Gibco) for the KMS11 and KMS34 cells and 10% dialyzed FCS for the KMS21 cells for 15 min at RT (room temperature). A549 cells were co‐cultured with 0–50 ng/mL of epidermal growth factor (EGF) (PeproTech) in Eagle's MEM containing 4% dialyzed FCS for 15 min at RT. […]
(§2) The protein concentrations were measured using a BCA Protein Assay Kit (Thermo Fisher Scientific). […]
(§3) Antibodies against phospho‐STAT3 (Tyr705), phospho‐Akt (Ser473), p44/42 MAPK (Erk 1/2), phosphor‐p44/42 MAPK (Thr202/Tyr 204), and phospho‐c‐Met (Tyr1234/1235) (all from Cell Signaling Technology, Danvers, MA) or STAT3, Akt, c‐Met, and β‐actin (all from Santa Cruz Biotechnology, Santa Cruz, CA) or phospho‐c‐Met (Tyr1230/1234/1235) (Biosource, Camarillo, CA for KMS34 cells in Figure 3A) were each used at 1:1000 dilution. […] The Western blotting signals were detected by enhanced ECL chemiluminescence (Amersham). The signal intensity of each band was quantified densitometrically with ImageJ software (ver. 1.48, U.S. National Institutes of Health).

ERK1/2 = assay: Western blot, dose-dependent inhibition of ERK1/2 phosphorylation in KMS34 cells; assay type: cell-based; settings: Homo sapiens, KMS-34, Western blot densitometry, read-out: 50% inhibition of the phosphorylation of ERK1/2
Description: as §1, §2, §3

HGF/c-MET signaling = assay: Western blot, HGF-stimulated signaling in KMS11, KMS21 and KMS34 cells; assay type: cell-based, human; settings: 20 μM GTN057
Description: as §1, §2, §3

[1] = system: bone marrow cells from mice; design: method as in PMID 28882484; settings: cited from earlier work

T1 sequence (P08581 25-1390): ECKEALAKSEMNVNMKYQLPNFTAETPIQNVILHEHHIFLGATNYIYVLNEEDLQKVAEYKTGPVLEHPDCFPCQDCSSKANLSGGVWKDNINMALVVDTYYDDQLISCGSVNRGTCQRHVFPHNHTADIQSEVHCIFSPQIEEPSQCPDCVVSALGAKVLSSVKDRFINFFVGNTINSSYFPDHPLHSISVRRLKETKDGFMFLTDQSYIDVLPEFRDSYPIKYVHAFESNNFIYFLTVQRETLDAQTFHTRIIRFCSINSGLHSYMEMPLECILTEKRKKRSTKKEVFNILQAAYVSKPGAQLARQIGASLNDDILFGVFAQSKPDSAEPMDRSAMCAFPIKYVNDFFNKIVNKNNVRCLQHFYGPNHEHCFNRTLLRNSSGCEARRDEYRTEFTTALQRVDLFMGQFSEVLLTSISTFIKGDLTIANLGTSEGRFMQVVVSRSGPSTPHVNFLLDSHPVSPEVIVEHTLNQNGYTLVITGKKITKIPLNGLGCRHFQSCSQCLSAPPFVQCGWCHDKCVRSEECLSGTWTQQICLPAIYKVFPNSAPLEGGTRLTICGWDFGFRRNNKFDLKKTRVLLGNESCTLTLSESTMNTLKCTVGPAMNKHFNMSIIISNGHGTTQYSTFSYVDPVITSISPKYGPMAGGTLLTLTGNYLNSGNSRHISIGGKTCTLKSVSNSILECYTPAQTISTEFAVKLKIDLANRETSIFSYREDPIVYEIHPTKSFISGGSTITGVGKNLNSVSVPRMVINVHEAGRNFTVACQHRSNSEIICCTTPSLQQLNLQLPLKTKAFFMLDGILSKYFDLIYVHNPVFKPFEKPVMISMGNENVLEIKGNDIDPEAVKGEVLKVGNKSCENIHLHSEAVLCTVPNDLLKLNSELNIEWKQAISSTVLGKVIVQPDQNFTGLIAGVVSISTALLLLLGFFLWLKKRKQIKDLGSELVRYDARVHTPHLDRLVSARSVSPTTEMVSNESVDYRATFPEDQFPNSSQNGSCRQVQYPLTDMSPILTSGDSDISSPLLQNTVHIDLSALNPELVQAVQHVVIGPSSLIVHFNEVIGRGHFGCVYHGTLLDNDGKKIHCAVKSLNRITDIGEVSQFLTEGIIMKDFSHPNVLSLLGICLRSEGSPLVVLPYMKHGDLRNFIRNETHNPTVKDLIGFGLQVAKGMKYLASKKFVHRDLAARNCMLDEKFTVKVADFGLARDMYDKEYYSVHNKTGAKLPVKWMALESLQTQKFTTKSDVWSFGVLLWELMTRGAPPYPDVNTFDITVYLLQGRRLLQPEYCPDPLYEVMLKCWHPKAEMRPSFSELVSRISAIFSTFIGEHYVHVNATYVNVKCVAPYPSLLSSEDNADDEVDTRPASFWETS

COc1c(OC(C)=O)c2c(c(O)c1C(C)C)C(=O)CC1C(C)(C)CCC[C@]1(O)C2 (stereo partly shown) [GTN057]
Effect of combination treatment (MUM24 cells): additive anti‐myeloma effect | Number of Factor VIII-positive vessel cells (KMS11 xenografted tumor): decreased | Numbers of cleaved-caspase-3-positive and PARP-positive cells (KMS11 xenografted tumor): significantly increased | Staining for cell proliferation marker MIB-1/Ki67 (KMS11 xenografted tumor): weakened | IC50 (c-MET): 35.9 µM | IC50 (ERK1/2): 21.3 µM | Phosphorylation of ERK1/2, STAT3 and Akt1 (HGF/c-MET signaling; KMS11, KMS21, KMS34 cells, 50 ng/mL HGF): diminished | Phosphorylation at y1234 y1235 of c-MET (HGF/c-MET signaling; co-culture with HGF): abolished | Colony formation of bone marrow cells ([1]; bone marrow cells from mice): did not inhibit the colony formation | Hematological toxicity in vitro ([1]; colony assay): negligible hematological toxicity
